In patent publication US20250352520A1, “USE OF DEXPRAMIPEXOLE FOR THE TREATMENT OF EOSINOPHILIC COPD” (Areteia Therapeutics, Inc., priority 2024, published 2025):

Conditions: Week 16; >=50% AEC reduction at Week 16

## CCCN[C@@H]1CCc2nc(N)sc2C1 [Dexpramipexole, (6R)-2-amino-4,5,6,7-tetrahydro-6-(propylamino)benzothiazole]
  Pre-BD FEF25-75 % change from baseline, Max: 27%
  Pre-BD FEF25-75 % change from baseline, Mean ± SD: 13.6 ± 13.59%
  Pre-BD FEF25-75 % change from baseline, Median: 13.7%
  Pre-BD FEF25-75 % change from baseline, Min: 0%
  Pre-BD FEF25-75 % change from baseline, Q1: 0%
  Pre-BD FEF25-75 % change from baseline, Q3: 27%
  Pre-BD FEF25-75 Observed, Max: 1170 mL/s
  Pre-BD FEF25-75 Observed, Mean ± SD: 736.7 ± 486.76 mL/s
  Pre-BD FEF25-75 Observed, Median: 830.0 mL/s
  Pre-BD FEF25-75 Observed, Min: 210 mL/s
  Pre-BD FEF25-75 Observed, Q1: 210 mL/s
  Pre-BD FEF25-75 Observed, Q3: 1170 mL/s
  Pre-BD FEF25-75 change from baseline, Max: 250 mL/s
  Pre-BD FEF25-75 change from baseline, Mean ± SD: 116.7 ± 125.83 mL/s
  Pre-BD FEF25-75 change from baseline, Median: 100.0 mL/s
  Pre-BD FEF25-75 change from baseline, Min: 0 mL/s
  Pre-BD FEF25-75 change from baseline, Q1: 0 mL/s
  Pre-BD FEF25-75 change from baseline, Q3: 250 mL/s
  Pre-BD FEV1 % change from baseline, Max: 52%
  Pre-BD FEV1 % change from baseline, Mean ± SD: 22.5 ± 25.80%
  Pre-BD FEV1 % change from baseline, Median: 8.3%
  Pre-BD FEV1 % change from baseline, Min: 7%
  Pre-BD FEV1 % change from baseline, Q1: 7%
  Pre-BD FEV1 % change from baseline, Q3: 52%
  Pre-BD FEV1 Observed, Max: 1980 mL
  Pre-BD FEV1 Observed, Mean ± SD: 1523.3 ± 657.29 mL
  Pre-BD FEV1 Observed, Median: 1820.0 mL
  Pre-BD FEV1 Observed, Min: 770 mL
  Pre-BD FEV1 Observed, Q1: 770 mL
  Pre-BD FEV1 Observed, Q3: 1980 mL
  Pre-BD FEV1 change from baseline, Max: 680 mL
  Pre-BD FEV1 change from baseline, Mean ± SD: 290.0 ± 340.73 mL
  Pre-BD FEV1 change from baseline, Median: 140.0 mL
  Pre-BD FEV1 change from baseline, Min: 50 mL
  Pre-BD FEV1 change from baseline, Q1: 50 mL
  Pre-BD FEV1 change from baseline, Q3: 680 mL
  Pre-BD FVC % change from baseline, Max: 29%
  Pre-BD FVC % change from baseline, Mean ± SD: 13.7 ± 13.73%
  Pre-BD FVC % change from baseline, Median: 10.0%
  Pre-BD FVC % change from baseline, Min: 2%
  Pre-BD FVC % change from baseline, Q1: 2%
  Pre-BD FVC % change from baseline, Q3: 29%
  Pre-BD FVC Observed, Max: 3250 mL
  Pre-BD FVC Observed, Mean ± SD: 2743.3 ± 470.57 mL
  Pre-BD FVC Observed, Median: 2660.0 mL
  Pre-BD FVC Observed, Min: 2320 mL
  Pre-BD FVC Observed, Q1: 2320 mL
  Pre-BD FVC Observed, Q3: 3250 mL
  Pre-BD FVC change from baseline, Max: 730 mL
  Pre-BD FVC change from baseline, Mean ± SD: 333.3 ± 351.62 mL
  Pre-BD FVC change from baseline, Median: 210.0 mL
  Pre-BD FVC change from baseline, Min: 60 mL
  Pre-BD FVC change from baseline, Q1: 60 mL
  Pre-BD FVC change from baseline, Q3: 730 mL
  Pre-BD Peak Flow % change from baseline, Max: 115%
  Pre-BD Peak Flow % change from baseline, Mean ± SD: 50.4 ± 56.32%
  Pre-BD Peak Flow % change from baseline, Median: 21.5%
  Pre-BD Peak Flow % change from baseline, Min: 14%
  Pre-BD Peak Flow % change from baseline, Q1: 14%
  Pre-BD Peak Flow % change from baseline, Q3: 115%
  Pre-BD Peak Flow Observed, Max: 338 L/min
  Pre-BD Peak Flow Observed, Mean ± SD: 240.0 ± 88.20 L/min
  Pre-BD Peak Flow Observed, Median: 215.0 L/min
  Pre-BD Peak Flow Observed, Min: 167 L/min
  Pre-BD Peak Flow Observed, Q1: 167 L/min
  Pre-BD Peak Flow Observed, Q3: 338 L/min
  Pre-BD Peak Flow change from baseline, Max: 181 L/min
  Pre-BD Peak Flow change from baseline, Mean ± SD: 80.0 ± 87.88 L/min
  Pre-BD Peak Flow change from baseline, Median: 38.0 L/min
  Pre-BD Peak Flow change from baseline, Min: 21 L/min
  Pre-BD Peak Flow change from baseline, Q1: 21 L/min
  Pre-BD Peak Flow change from baseline, Q3: 181 L/min
